Test results reported in US20250282746A1, “HALOGEN-SUBSTITUTED ISOINDOLINE COMPOUND AND USE THEREOF” (CHENGDU FENDI PHARMACEUTICAL CO., LTD., priority 2022, published 2025).
Where two headings read alike, the source gives them in different places.

Tests used:
GSPT1 protein = target: T1, GSPT1 protein (Homo sapiens, UniProt P15170); assay: Degradation of GSPT1 protein in NB-4 cells (Western blot); type: cell-based; conditions: for inhibition at 1 µM: read-out: GSPT1 degradation
T1 construct: The whole cell lysate was prepared using a RIPA lysis buffer; endogenous in cells; host or cells: NB-4 cells
T1 sequence (P15170 whole entry): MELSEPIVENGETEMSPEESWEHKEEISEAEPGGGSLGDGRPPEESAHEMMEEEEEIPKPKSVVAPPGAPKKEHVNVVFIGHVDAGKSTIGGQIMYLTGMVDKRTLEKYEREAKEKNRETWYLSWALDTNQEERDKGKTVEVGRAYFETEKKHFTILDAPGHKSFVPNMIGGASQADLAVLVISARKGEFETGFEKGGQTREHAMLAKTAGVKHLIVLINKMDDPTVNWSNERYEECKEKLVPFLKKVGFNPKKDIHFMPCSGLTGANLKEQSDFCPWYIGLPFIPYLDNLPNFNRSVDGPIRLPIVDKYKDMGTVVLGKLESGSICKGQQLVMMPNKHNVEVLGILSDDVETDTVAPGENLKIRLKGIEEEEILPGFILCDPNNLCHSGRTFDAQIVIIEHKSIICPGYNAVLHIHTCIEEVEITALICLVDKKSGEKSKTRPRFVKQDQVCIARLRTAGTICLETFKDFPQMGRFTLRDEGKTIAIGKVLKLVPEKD
Method: 150 μL of DMSO and the compounds (1 μM) were added, and the mixture was incubated in an incubator at 5% CO2 and 37° C. for 6 h. The cells were centrifuged, and the culture medium was discarded. PBS was added for washing and then discarded. The whole cell lysate was prepared using a RIPA lysis buffer containing a protease inhibitor cocktail and a phosphatase inhibitor, and incubated on ice for 30 min. The mixture was centrifuged, and the cell debris was discarded. The whole cell lysate supernatant was collected and transferred to a fresh EP tube. Samples were prepared using a loading buffer after a BCA protein assay. The samples were incubated in a metal bath at 100° C. for 10 min.
The samples were electrophoretically separated from proteins on a 4-20% precast gel (SDS-PAGE gel), transferred to a PVDF membrane, blocked with 5% NFDM/TBST for 1 h at room temperature, co-incubated overnight at 4° C. with the primary antibody, and co-incubated for 2 h at room temperature with the secondary antibody on the next day. The signals were detected on the […]™ imaging system.

MV-4-11 cells = assay: Antiproliferative activity against MV-4-11 cells (CellTiter-Glo, 72 h); type: cell-based; conditions: Homo sapiens
Method: MV411 cells in the logarithmic growth phase were diluted in a medium (RPMI+10% FBS) and plated at 5,000 cells/well in 96-well whole black plates (WHB) with 50 μL/well. After plating, the plates were incubated in an incubator at 5% CO2 and 37° C. for 24 h before the compounds were added. The compounds were prepared into a 10 mM stock solution in DMSO and diluted in a culture medium to the desired concentrations (a final DMSO concentration of 0.2%). […] The plates were incubated at 5% CO2 and 37° C. for 72 h. After the incubation was complete, the plates were equilibrated at room temperature for 30 min. CellTiter-Glo® Reagent (Promega G7573) was added at 100 μL/well. The plates were shaken for 12 min on a microplate shaker. The luminescence value was measured at room temperature by the GloMax navigator (Promega GM2010).

[1] = MV4-11, MV-4-11 cells, 72 h, read-out: Antiproliferative activity IC50
[2] = MV4-11, 72 h, read-out: Antiproliferative activity IC50

| SMILES | inhibition at 1 µM (GSPT1 protein; NB-4 cells, compound 1 μM, 6 h) [%] | IC50 (MV-4-11 cells; [1]) [nM] | other results |
| --- | --- | --- | --- |
| Cc1ccc(C(=O)NCc2ccc3c(c2F)CN(C2CCC(=O)NC2=O)C3=O)c(N)c1 (stereo not shown) [FDAB-111] | < 25 | > 1000 |  |
| CS(=O)(=O)c1ccc(C(=O)NCc2ccc3c(c2F)CN(C2CCC(=O)NC2=O)C3=O)c(N)c1 (stereo not shown) [FDAB-114] | < 25 | > 1000 |  |
| NS(=O)(=O)c1cc(C(=O)NCc2ccc3c(c2F)CN(C2CCC(=O)NC2=O)C3=O)ccc1Cl (stereo not shown) [FDAB-115] | < 25 | > 1000 |  |
| O=C1CCC(N2Cc3c(ccc(CNC(=O)c4ccc(Cl)cc4F)c3Cl)C2=O)C(=O)N1 (stereo not shown) [FDAB-119] | > 80 | 10 to 100 |  |
| Cc1ccc(C(=O)NCc2ccc3c(c2Cl)CN(C2CCC(=O)NC2=O)C3=O)cc1F (stereo not shown) [FDAB-122] | < 25 | 100 to 1000 |  |
| Cc1ccc(C(=O)NCc2ccc3c(c2Cl)CN(C2CCC(=O)NC2=O)C3=O)c(F)c1 (stereo not shown) [FDAB-123] | 50 to 80 | 10 to 100 |  |
| CCN1C(=O)CCC(N2Cc3c(ccc(CNC(=O)c4ccc(Cl)cc4)c3F)C2=O)C1=O (stereo not shown) [FDAB-125] | < 25 | > 1000 |  |
| CCOC(=O)CN1C(=O)CCC(N2Cc3c(ccc(CNC(=O)c4ccc(Cl)cc4)c3F)C2=O)C1=O (stereo not shown) [FDAB-126] | < 25 | > 1000 |  |
| CC(C)OC(=O)N1C(=O)CCC(N2Cc3c(ccc(CNC(=O)c4ccc(Cl)cc4)c3F)C2=O)C1=O (stereo not shown) [FDAB-127] | < 25 | > 1000 |  |
| CC(C)OC(=O)OCN1C(=O)CCC(N2Cc3c(ccc(CNC(=O)c4ccc(Cl)cc4)c3F)C2=O)C1=O (stereo not shown) [FDAB-128] |  |  | inhibition at 1 µM (GSPT1 protein; NB-4, 6 h): 50 to 80%; IC50 (MV-4-11 cells; [2]): 10 to 100 nM |
| Cc1ccc(C(=O)NCc2ccc3c(c2F)CN(C2CCC(=O)N(COC(=O)OC(C)C)C2=O)C3=O)c(F)c1 (stereo not shown) [FDAB-130] |  |  | inhibition at 1 µM (GSPT1 protein; NB-4, 6 h): 50 to 80%; IC50 (MV-4-11 cells; [2]): 10 to 100 nM |
| O=C1CCC(N2Cc3c(ccc(CNC(=O)C4(c5ccc(Br)cc5F)CC4)c3F)C2=O)C(=O)N1 (stereo not shown) [FDAB-141] | < 25 | > 1000 |  |
| N#Cc1ccc(NCC(=O)NCc2ccc3c(c2F)CN(C2CCC(=O)NC2=O)C3=O)cc1 (stereo not shown) [FDAB-149] | < 25 | > 1000 |  |
| O=C(CSc1ccncc1)NCc1ccc2c(c1F)CN(C1CCC(=O)NC1=O)C2=O (stereo not shown) [FDAB-155] | < 25 | > 1000 |  |
| O=C(CCCCN1CCCCC1)NCc1ccc2c(c1F)CN(C1CCC(=O)NC1=O)C2=O (stereo not shown) [FDAB-159] | < 25 | > 1000 |  |
| CCCCCCCCCCCCSC(=S)SC(C)(C)C(=O)NCc1ccc2c(c1F)CN(C1CCC(=O)NC1=O)C2=O (stereo not shown) [FDAB-163] | < 25 | > 1000 |  |
| O=C1CCC(N2Cc3c(ccc(CNCc4ccc(Oc5ccccc5)cc4)c3F)C2=O)C(=O)N1 (stereo not shown) [FDAB-166] |  |  | inhibition at 1 µM (GSPT1 protein; NB-4, 6 h): > 80%; IC50 (MV-4-11 cells; [2]): 1 to 10 nM |
| O=C1CCC(N2Cc3c(ccc(CNCc4ccc(Cl)cc4)c3F)C2=O)C(=O)N1 (stereo not shown) [FDAB-168] | > 80 | 10 to 100 |  |
| O=C(Cc1cc2ccccc2s1)NCc1cc(F)cc2c1CN(C1CCC(=O)NC1=O)C2=O (stereo not shown) [FDAB-169] | 50 to 80 | 10 to 100 |  |
| O=C(CCc1cccc2ccccc12)NCc1cc(F)cc2c1CN(C1CCC(=O)NC1=O)C2=O (stereo not shown) [FDAB-170] | > 80 | 10 to 100 |  |
| O=C1CCC(N2Cc3c(CNC(=O)C(F)(F)c4ccc(Cl)cc4)cc(F)cc3C2=O)C(=O)N1 (stereo not shown) [FDAB-171] | < 25 | 100 to 1000 |  |
| O=C1CCC(N2Cc3cc(CNC(=O)c4ccc(Cl)cc4)ccc3C2=O)C(=O)N1 (stereo not shown) [reference compound] |  |  | degradation of GSPT1 protein (GSPT1 protein; co-incubated for 6 h with NB-4 cells): 65%; IC50 (MV-4-11 cells; MV4-11, MV-4-11 cells, read-out: IC50 against MV-4-11 cell proliferation): 103 nM |

Further lines, with some results ahead:

| inhibition at 1 µM (GSPT1 protein; NB-4 cells, compound 1 μM, 6 h) [%] | IC50 (MV-4-11 cells; [1]) [nM] | SMILES | other results |
| --- | --- | --- | --- |
| > 80 | < 1 | O=C1CCC(N2Cc3c(ccc(CNC(=O)c4ccc(N5CCCC5)cc4)c3F)C2=O)C(=O)N1 (stereo not shown) [FDAB-110] |  |
| > 80 | 10 to 100 | Cc1ccc(C(=O)NCc2ccc3c(c2F)CN(C2CCC(=O)NC2=O)C3=O)cc1N (stereo not shown) [FDAB-112] |  |
| > 80 | 10 to 100 | Nc1cc(C(=O)NCc2ccc3c(c2F)CN(C2CCC(=O)NC2=O)C3=O)ccc1Cl (stereo not shown) [FDAB-113] |  |
| > 80 | 1 to 10 | O=C1CCC(N2Cc3c(ccc(CNC(=O)c4ccc(Cl)c(F)c4)c3F)C2=O)C(=O)N1 (stereo not shown) [FDAB-116] |  |
| > 80 | 1 to 10 | O=C1CCC(N2Cc3c(ccc(CNC(=O)c4ccc(Cl)cc4F)c3F)C2=O)C(=O)N1 (stereo not shown) [FDAB-117] |  |
| 50 to 80 | 10 to 100 | O=C1CCC(N2Cc3c(ccc(CNC(=O)c4ccc(Cl)c(F)c4)c3Cl)C2=O)C(=O)N1 (stereo not shown) [FDAB-118] |  |
| > 80 | < 1 | O=C(Cc1ccc(Cl)cc1Cl)NCc1ccc2c(c1F)CN(C1CCC(=O)NC1=O)C2=O (stereo not shown) [FDAB-131] |  |
| > 80 | < 1 | CCCCOc1ccc(CC(=O)NCc2ccc3c(c2F)CN(C2CCC(=O)NC2=O)C3=O)cc1 (stereo not shown) [FDAB-132] |  |
| > 80 | < 1 | O=C(Cc1cccc(-c2ccccc2)c1)NCc1ccc2c(c1F)CN(C1CCC(=O)NC1=O)C2=O (stereo not shown) [FDAB-133] |  |
| 50 to 80 | 1 to 10 | O=C(Cc1c[nH]c2ccc(F)cc12)NCc1ccc2c(c1F)CN(C1CCC(=O)NC1=O)C2=O (stereo not shown) [FDAB-134] |  |
| > 80 | 1 to 10 | O=C(Cc1c[nH]c2cccc(Br)c12)NCc1ccc2c(c1F)CN(C1CCC(=O)NC1=O)C2=O (stereo not shown) [FDAB-135] |  |
| > 80 | 1 to 10 | O=C(Cc1cc2ccccc2s1)NCc1ccc2c(c1F)CN(C1CCC(=O)NC1=O)C2=O (stereo not shown) [FDAB-136] |  |
| > 80 | < 1 | O=C(CCc1cccc2ccccc12)NCc1ccc2c(c1F)CN(C1CCC(=O)NC1=O)C2=O (stereo not shown) [FDAB-138] |  |
| > 80 | 1 to 10 | O=C(CCCc1ccc(I)cc1)NCc1ccc2c(c1F)CN(C1CCC(=O)NC1=O)C2=O (stereo not shown) [FDAB-139] |  |
| > 80 | < 1 | CCCOc1ccc(/C=C/C(=O)NCc2ccc3c(c2F)CN(C2CCC(=O)NC2=O)C3=O)cc1 (stereo not shown) [FDAB-143] |  |
| > 80 | < 1 | O=C(C#Cc1ccc(Cl)cc1)NCc1ccc2c(c1F)CN(C1CCC(=O)NC1=O)C2=O (stereo not shown) [FDAB-145] |  |
| > 80 | < 1 | O=C(C#Cc1cccc(O)c1)NCc1ccc2c(c1F)CN(C1CCC(=O)NC1=O)C2=O (stereo not shown) [FDAB-146] |  |
| > 80 | 1 to 10 | O=C(C#Cc1ccccn1)NCc1ccc2c(c1F)CN(C1CCC(=O)NC1=O)C2=O (stereo not shown) [FDAB-148] |  |
| > 80 | < 1 | O=C(COc1c(Cl)cc(Cl)cc1Cl)NCc1ccc2c(c1F)CN(C1CCC(=O)NC1=O)C2=O (stereo not shown) [FDAB-152] |  |
| > 80 | 1 to 10 | O=C(CCOc1ccccc1)NCc1ccc2c(c1F)CN(C1CCC(=O)NC1=O)C2=O (stereo not shown) [FDAB-154] |  |
| > 80 | < 1 | O=C(CCP(c1ccccc1)c1ccccc1)NCc1ccc2c(c1F)CN(C1CCC(=O)NC1=O)C2=O (stereo not shown) [FDAB-160] |  |
| > 80 | < 1 | O=C(CCSC(=S)SCc1ccccc1)NCc1ccc2c(c1F)CN(C1CCC(=O)NC1=O)C2=O (stereo not shown) [FDAB-161] |  |
| > 80 | < 1 | COc1cc(C)c(/C=C/C(C)=C/C=C/C(C)=C/C(=O)NCc2ccc3c(c2F)CN(C2CCC(=O)NC2=O)C3=O)c(C)c1C (stereo not shown) [FDAB-162] |  |
| > 80 | 1 to 10 | O=C1CCC(N2Cc3c(ccc(CNCc4cc5cc(Cl)ccc5o4)c3F)C2=O)C(=O)N1 (stereo not shown) [FDAB-165] |  |
| > 80 | 1 to 10 | CCCc1ccc(CNCc2ccc3c(c2F)CN(C2CCC(=O)NC2=O)C3=O)cc1 (stereo not shown) [FDAB-167] |  |
